This note sets out measurements from patent publication US11446299B2, “Carbazole EHop-016 derivatives as anticancer and anti-migratory agents” (UNIVERSITY OF PUERTO RICO, priority 2017, dated 2022).

One may read the IC50 as the concentration that inhibits the measured activity by half. As usually defined, the GI50 is the concentration giving 50% growth inhibition. A high value points to less potent growth inhibition.

The structures appear in SMILES notation.

The subject of assay [1] is MDA-MB-231 breast cancer cells. The experiment in a line: Wound healing assay (scratch method), cell migration. As to conditions: for inhibition of migration in words: at a concentration of 0.2×IC50; for activity at 10 µM: percent relative migration at 10 μM after 24 h, relative to control, MDA-MB-231. It counts as cell-based, human. As to the method:
The experimental data of anti-migratory activities for compounds 3a-d and 4a-f were obtained using MDA-MB-231 breast cancer cells. For the migration assay, a wound-healing assay (scratch-wound assay) was utilized in the presence of vehicle (0.02% DMSO) or compounds at […].
Prior to assays, cells were grown until 80-90% confluence was observed. A 75 cm2 flask was used for 2.6×10^5 cells/mL in 10 mL and for a 25 cm2 flask 1.44×10^5 cells/mL in 5 mL. The cells were washed with PBS to remove all traces of FBS. 2 mL was added for a 25 cm2 flasks or 4 mL for a 75 cm2 flasks trypsin, and incubated 5-10 min at 37° C. At the end of the incubation time, cells were re-suspended and counted with hemocytometer using 1:2 dilutions with Trypan blue. Subsequently, cell viability was calculated. In a 12 multiwell plate, the plastic pattern was used to draw a fine space with a fine marker on the bottom of the plate. Cells were seeded at 1.5-2.2×10^5 cells/mL in 1 mL and incubated for 24 h. Cells were then rinsed with PBS and incubated in starving media (0.5% FBS) overnight. All controls and drugs were tested in triplicate. The negative control for each drug was prepared according to the drug's DMSO concentration.
Drugs were diluted and the final concentration at each well […]. The wound was made using a sterile pipette tip of […]. Cells were then rinsed very gently with media without FBS and media with negative controls was added. After a 24 h incubation, the gap distance was evaluated using the software Lumera Infinity Analyze 6.4.0. Pictures were taken at 0, 8, 12 and 24 h using a 10× objective. The percentage of migration was calculated using the following formula: 100−[(X0/X0)]*100 for time 0 h measurements 100−[(X24/X0)]*100 for time 24 h measurements
The experimental data of anti-migratory activities for compounds 3a-d and 4a-f were obtained using MDA-MB-231 breast cancer cells, and results are summarized in Table 1. For the migration assay, we used a wound-healing assay (scratch-wound assay)^22 in the presence of vehicle (0.02% DMSO) or compounds at 10 μM (FIG. 6). […] However, compounds 3a, 3c, and 4a-f inhibited migration in the range of 1-9%.
(§1) An additional example of a compounds with modification in building block C was synthesized via a different procedure as represented in Scheme 2B (see FIG. 11B). The compounds that were synthesized were tested for their biological activity by determination of their cytotoxicity in MDA-MB-231 breast cancer cell lines as shown in Table 5. The cytotoxicity's are expressed as IC50, which indicates the concentration at which 50% of the cell growth is inhibited. Furthermore, the inhibition of cell migration was tested at a concentration of 0.2×IC50, or, when the IC50 was >50 μM at a concentration of 10 μM. For comparison, Table 5 also includes the Lipinski and drug-likeness parameters as calculated via the MolSoft platform.
Migration assays were performed via the Scratch Method as described previously.

Assay [2] concerns MDA-MB-231 breast cancer cell lines. The assay can be described thus: Cytotoxicity (IC50) of EHop-016 derivatives modified in building block C. The assay is classed as cell-based. As to conditions: Homo sapiens, concentration at which 50% of the cell growth is inhibited. As to the method: as §1
A further assay concerns MCF-7 cancer cells. The assay can be described thus: Sulforhodamine B (SRB) growth inhibition assay. As to conditions: Homo sapiens, MCF7, 24 h treatment, mean of triplicate, SD <10%. It counts as cell-based. As to the method:
(§2) Various compounds were tested to evaluate the dose response curve for effect on MCF-7 cancer cells and MDA-MB-231 cancer cells. MCF-7 and MDA-MB-231 cells were cultured in 10% Minimum Essential Medium Eagle (MEME) supplemented with Earle's Balanced Salt Solution (EBSS), Non-essential Amino acids (NEAA), Sodium pyruvate, Pen/Strep, L-glutamine and Fetal Bovine Serum (FBS) at 37° C. in 5% CO2.
(§3) Sulforhodamine B (SRB) Assay: A stock solution of compounds was prepared at 50 mM in 100% DMSO. For cells preparation, a flask of 75 cm^2 or 25 cm^2 were used for 2.6×10^5 cells or 1.44×10^5 cells respectively with an 80-90% of confluence. Cells were washed with PBS and trypsinized. The concentration of cells was determined using a 1:2 dilutions with Trypan Blue and a hemocytometer. After cell count, the concentration was adjusted to have a 1.9×10^4 cells/well. Approximately […] of cells suspension, compounds, control positive and control negative were added in triplicates to a 96 well plate. Positive controls used were ellipticine, doxorubicin, and/or vincristine, and the negative control was DMSO 0.1%. All compounds at 50, 25, 12.5, 6.3, and 1.6 μM were incubated with cells at 37° C. for 24 hrs. For fixation, cold TCA 50% was used and incubated at 4° C. for 1 hr. Wells were washed and dried prior to tincture with 100 μL of SRB 0.4%. To remove excess of SRB, acetic acid was used. For analysis, TRIS-BASE Solution (pH=10.5) was used and shacked prior to reading using an ELISA reader at 510 nm and the software SoftMax Pro 4.8.
(§4) For each compound, 50% growth inhibition (GI50) was calculated from Sigmoidal dose-response curves (variable-slope) that were generated with data obtained from experiments carried out in triplicates (GI50 values were generated with GraphPad Prism V. 6.02, GraphPad Software, Inc.). The results are presented in FIGS. 4A-4B (MCF-7 cancer cells) and FIGS. 5A-5B (MDA-MB-231 cancer cells).

Assay [3] deals with SH-SY5Y neuroblastoma cells. The experiment in a line: Growth inhibition, log dose-response. It counts as cell-based. The settings on record: Homo sapiens. The source says: FIG. 14 (A-B). Log dose-response curve for compound 8 in MCF-7 (FIG. 14A) and SH-SY5Y neuroblastoma (FIG. 14B) cells.
The next assay has as its system MDA-MB-231 cancer cells. The assay can be described thus: Sulforhodamine B (SRB) growth inhibition assay. It counts as cell-based, human. The settings on record: Homo sapiens, MDA-MB-231; SRB assay, 24 h treatment, mean of triplicate, SD <10%. As to the method:
as §2, §3, §4
In general terms: The SRB assay estimates cell density from bound dye.

In the case of `CCn1c2ccccc2c2cc(Nc3ccnc(NCCO)n3)ccc21` [Compound 36, 2-((4-((9-ethyl-9H-carbazol-3-yl)amino)pyrimidin-2-yl)amino) ethanol], the activity at 2.92 µM in assay [1] (Homo sapiens, MDA-MB-231, 24 h, at 2.92 μM (0.2×IC50)) was 94.8%. The IC50 in assay [2] came out at 14.6 µM.

For the compound `CCn1c2ccccc2c2cc(Nc3ccnc(NCC4CCCCN4)n3)ccc21` (stereo not shown) [Compound 34, N^4-(9-ethyl-9H-carbazol-3-yl)-N^2-(piperidin-2-ylmethyl)pyrimidine-2,4-diamine], the activity at 0.39 µM in assay [1] (Homo sapiens, MDA-MB-231, 24 h, at 0.39 μM (0.2×IC50)) is 100%. In assay [2], the IC50 turned out to be 1.97 µM.

With `CCn1c2ccccc2c2cc(Nc3ccnc(NC(=O)Nc4cc(Cl)c(OC)cc4OC)n3)ccc21` [Compound 41, 1-(5-chloro-2,4-dimethoxyphenyl)-3-(4-((9-ethyl-9H-carbazol-3-yl)amino)pyrimidin-2-yl)urea], the activity at 1 µM in assay [1] (Homo sapiens, MDA-MB-231, 24 h, at 1 μM) turned out to be 77.3%. The “inhibition of migration in words” value in assay [1] is reported as “inhibition of migration”. In addition, the IC50 in assay [2] worked out at 10.9 µM.

Turning to `CCN(CC)CCCC(C)Nc1nccc(Nc2ccc3c(c2)c2ccccc2n3CC)n1` (stereo not shown) [Compound 32, N^2-(5-(diethylamino)pentan-2-yl)-N^4-(9-ethyl-9H-carbazol-3-yl)pyrimidine-2,4-diamine], the activity at 1.8 µM in assay [1] (Homo sapiens, MDA-MB-231, 24 h, at 1.8 μM (0.2×IC50)) was 99.9%. Further, half-maximal inhibition in assay [2] (IC50) required 9 µM.

On to `CCn1c2ccccc2c2cc(Nc3ccnc(NCCOC)n3)ccc21` [Compound 38, N^4-(9-ethyl-9H-carbazol-3-yl)-N^2-(2-methoxyethyl)pyrimidine-2,4-diamine], for which the activity at 2.8 µM in assay [1] (Homo sapiens, MDA-MB-231, 24 h, at 2.8 μM) came to 96.7%. Also, in assay [2], the IC50 is > 50 µM.

In the case of `CCn1c2ccccc2c2cc(Nc3ccnc(NCCOCCO)n3)ccc21` [Compound 37, 2-(2-((4-((9-ethyl-9H-carbazol-3-yl)amino)pyrimidin-2-yl)amino)ethoxy)ethanol], the activity at 3.07 µM in assay [1] (Homo sapiens, MDA-MB-231, 24 h, at 3.07 μM) amounted to 100%. The IC50 in assay [2] is > 50 µM.

Consider `CCn1c2ccccc2c2cc(Nc3ccnc(NCCCn4ccnc4)n3)ccc21` [Compound 33, N^2-(3-(1H-imidazol-1-yl)propyl)-N^4-(9-ethyl-9H-carbazol-3-yl)pyrimidine-2,4-diamine], for which the activity at 1.51 µM in assay [1] (Homo sapiens, MDA-MB-231, 24 h, at 1.51 μM (0.2×IC50)) came to 100%. The same compound returned an IC50 in assay [2] of 7.57 µM.

As for `CCn1c2ccccc2c2cc(Nc3ccnc(NCc4ccc(OC)cc4OC)n3)ccc21` [Compound 39, N^2-(2,4-dimethoxybenzyl)-N^4-(9-ethyl-9H-carbazol-3-yl) pyrimidine-2,4-diamine], the activity at 0.92 µM in assay [1] (Homo sapiens, MDA-MB-231, 24 h, at 0.92 μM) turned out to be 103%. The IC50 in assay [2] was > 50 µM.

On to `CCn1c2ccccc2c2cc(Nc3cc(C)nc(NCCCN4CCOCC4)n3)ccc21` [Compound 8, N^4-(9-Ethyl-9H-carbazol-3-yl)-6-methyl-N^2-(3-morpholin-4-yl-propyl)-pyrimidine-2,4-diamine], for which the results for the GI50 (in the assay with MCF-7 cancer cells; in assay [3]) were 9.5 µM and 6 µM, respectively.

`CCn1c2ccccc2c2cc(Nc3ccnc(NCCC4CCCN4C)n3)ccc21` (stereo not shown) [Compound 35, N^4-(9-ethyl-9H-carbazol-3-yl)-N^2-(2-(1-methylpyrrolidin-2-yl)ethyl)pyrimidine-2,4-diamine]: the activity at 3.8 µM in assay [1] (Homo sapiens, MDA-MB-231, 24 h, at 3.8 μM (0.2×IC50)) turned out to be 89.1%. Besides, the “inhibition of migration in words” value in assay [1] was “inhibition of migration”. Half-maximal inhibition in assay [2] (IC50) required 19.1 µM.

For the compound `CCn1c2ccccc2c2cc(Nc3ccnc(Nc4c(OC)cc(OC)cc4OC)n3)ccc21` [Compound 40, N^4-(9-ethyl-9H-carbazol-3-yl)-N^2-(2,4,6-trimethoxyphenyl) pyrimidine-2,4-diamine], the activity at 1.54 µM in assay [1] (Homo sapiens, MDA-MB-231, 24 h, at 1.54 μM (0.2×IC50)) came to 80.2%. Also, the “inhibition of migration in words” value in assay [1] is recorded as “inhibition of migration”. For the same compound, the IC50 in assay [2] came to 7.7 µM.

Regarding `CCn1c2ccccc2c2cc(NC(=O)C3CCCCC3C(=O)NCCCN3CCOCC3)ccc21` (stereo not shown) [Compound 14h, cyclohexane-1,2-dicarboxylic acid 1-[(9-ethyl-9H-carbazol-3-yl)-amide]-2-[(3-morpholin-4-yl-propyl)-amide]], the GI50 with MCF-7 cancer cells and in the assay with MDA-MB-231 cancer cells was > 50 µM each time. Besides, the activity at 10 µM in assay [1] (Homo sapiens) amounted to 100 ± 0.56%.

For `CCn1c2ccccc2c2cc(NC(=O)c3cccnc3N3CCN(c4ccccc4)CC3)ccc21` [Compound 3c, N-(9-ethyl-9H-carbazol-3-yl)-2-(4-phenylpiperazin-1-yl)nicotinamide], the GI50 in the assay with MCF-7 cancer cells and in the assay with MDA-MB-231 cancer cells was > 50 µM throughout. Besides, the activity at 10 µM in assay [1] (Homo sapiens) came out at 99 ± 1.89%.

`CCn1c2ccccc2c2cc(NC(=O)c3nccnc3C(=O)NCCN3CCOCC3)ccc21` [Compound 14a, N^2-(9-ethyl-9H-carbazol-3-yl)-N^3-(2morpholinoethyl)pyrazine-2,3-dicarboxamide]: the GI50 in the assay on MCF-7 cancer cells and in the assay on MDA-MB-231 cancer cells was > 50 µM each time. In assay [1] (Homo sapiens), the activity at 10 µM was 91 ± 5.23%.
